Entries after “also recorded” stand apart in the source; their conditions may differ. Like-named read-outs stand apart in the source and are kept apart here.
Columns and labels:
[1] = tested on: focal seizures; details: cited from earlier work
[2] = Ivermectin solubility determination in excipients
Experimental: The solubility assessments were performed by continually adding a known amount of the API into each individual excipient and letting the excipient reach solubility equilibrium via API saturation (visible solid observed). The experiments were conducted at ambient conditions (25° C.) and were left to mix on a stir plate at 500 RPM for at least 72 hours.

[3] = tested on: LPS-induced human PBMCs; assay: LPS-induced secretion of TNF-α, IL-6 and IL-23 in PBMCs; assay type: cell-based; details: PBMC, LPS activation for 2 days, ELISA
Experimental: The supernatants were analyzed for TNF-α, IL-6, and IL-23 by ELISA.

[4] = Pharmacokinetics of Ivermectin B1a in SD rat plasma after IV or oral administration
Experimental: Thirty-six male Sprague Dawley rats were randomly assigned into four groups, with nine male rats in each group. All animals in all groups are fasted overnight prior to the experimental date.
Blood samples were collected from 6 of 9 animals per group at 0.5, 1, 2, 3, 4, 6, 8, 24, 72, 120, 168 hours post-dose.

[5] = tested on: human PBMCs; assay: IL-17 and IFN-γ secretion in PBMCs stimulated by anti-CD3/CD28 in vitro; assay type: cell-based; details: anti-CD3/CD28 stimulation, 48 hours, ELISA
Experimental: The supernatants were analyzed for IL-17 and IFN-γ by ELISA. One representative of three different experiments is shown.

[6] = tested on: TLR-induced human monocytes; assay: IL-1β secretion in TLR-induced monocytes; assay type: cell-based; details: induced by LPS, Pam2CSK4 and Pam3CSK4 (100 ng/ml), 24 hours, ELISA
Experimental: The supernatants were analyzed for IL-1β by ELISA.

[7] = tested on: PBMCs of human subjects; assay: Phase 1: IL-17 secretion in PBMCs stimulated ex vivo after oral administration; details: oral 10-120 mg, significant at 80 and 120 mg SAD and at all MAD doses, anti-CD3/CD28 48 hrs
Experimental: The supernatants were analyzed for IL-17 by ELISA.

[8] = tested on: STAT3 and IkBα phosphorylation in human CD4+ T cells; assay: Th17-induced STAT3 and IkBα phosphorylation (Western Blot); assay type: cell-based; details: Th17-skewing conditions, 2 hours
Experimental: The cell lysates were prepared and analyzed by Western Blot. One representative of three different experiments is shown.

[9] = tested on: human CD4+ T cells activated under Th17 skewing conditions; assay: FoxP3 expression (RT-PCR) and percentage of FoxP3+ T cells (Flow Cytometry); assay type: cell-based; details: 1.5 mM of ivermectin, 5 days
Experimental: FoxP3, IL-17A and RORc mRNA expression levels were tested by RT-PCR (A). The percentage of FoxP3^+ T cells was determined by Flow Cytometry by using intra-cellular staining with PE-conjugated anti-Foxp3 antibody (B).

[10] = tested on: Sprague-Dawley rats; assay: Animal model of infantile spasms (NMDA-induced); assay type: in vivo, rat; details: 2 and 4 mg/kg i.p. daily P10-P15; p<0.05
Excerpt: A two-stage model of infantile spasms was developed (FIG. 23A). Pregnant Sprague-Dawley rats receive two injections of betamethasone on gestational (G) day 15. Offspring of those pregnancies are used for experiments during infancy, postnatal days (P) 10-15. Spasms are induced by i.p. injection of N-methyl-D-aspartic acid (NMDA), which is graded depending on the postnatal age of the subjects.
Days of dosing were P10, P11, P12, P13, P14 and P15.

[11] = tested on: Th17-skewed human CD4+ T cells; assay: Cytokine secretion in Th17-skewed CD4+ T cells (ELISA); assay type: cell-based
Experimental: The supernatants were analyzed for IL-17, TL-21 and IFN-γ by ELISA.

[12] = tested on: Monocytes-derived dendritic cells (moDC); assay: TNF-α and IL-6 secretion in dendritic cells; assay type: cell-based, human; details: moDC stimulated by Pam2CSK4 and Pam3CSK4, 24 hours, ELISA
Experimental: Monocytes-derived dendritic cells (moDC) were differentiated by culturing purified human monocytes with 25 ng/mL hGM-CSF and 50 ng/mL hTL-4 for 5-7 days to reach full differentiation. […] The supernatants were analyzed for IL-6 and TNF-α by ELISA. Bar graphs represent pooled data from 2-3 experiments.

[13] = tested on: C57BL/6 mice; assay: Experimental autoimmune encephalomyelitis (EAE) model of MS; assay type: in vivo, mouse; details: 1, 2, 4 mg/kg oral once daily, therapeutic from Day 14 to Day 34
Experimental: Vehicle was 1.6% DMSO in water. […] These were frozen at −20° C. Every 3 to 4 days, one aliquot was thawed and diluted with water to create a fine suspension at 0.8 mg/mL (for 4 mg/kg dosing). Final DMSO concentration was 1.6%. […] Per customer, all dosing formulations were stable for up to 4 days at 4° C. FTY720 stock solution (30 mg/mL in ethanol) was prepared for all ongoing studies. Daily, the FTY720 stock solution was diluted with water to the final dosing concentration of 0.6 mg/mL.
A balanced distribution of mice was confirmed by comparing mean day of onset, average score at EAE onset, average score on Day 14 and average weight on Day 13.
EAE was induced on Day 0 by myelin oligodendrocyte glycoprotein (MOG35-55)/complete Freund's adjuvant (CFA) immunization, followed by pertussis toxin (PTX) injections on Days O and 1. Treatment was therapeutic, starting on Day 14. […] Treatment continued through Day 34. Mice were observed through the end of the study, Day 35.
Clinical scores were assessed as follows: 1=limp tail, 2=partial hind leg paralysis, 3=complete hind leg paralysis, 4=complete hindleg and partial front leg paralysis; 5=moribund.

[14] = single IV 2 mg/kg, fasting male SD rats, n = 6

NC(=O)N1c2ccccc2C[C@H](O)c2ccccc21 [APTIOM, Eslicarbazepine]
Placebo-adjusted >50% Focal Seizure Reduction ([1]; 1200 mg): 20% | Placebo-adjusted Median Reduction in Focal Seizure Frequency ([1]; 2000 mg): 14-24%

CCC[C@@H]1CC(=O)N([C@@H](CC)C(N)=O)C1 [BRIVIACT, Brivaracetam]
Placebo-adjusted >50% Focal Seizure Reduction ([1]; 200 mg): 18% | Placebo-adjusted Median Reduction in Focal Seizure Frequency ([1]; 200 mg): 26%

CCC(C)C1OC2(CCC1C)CC1CC(CC=C(C)C(OC3CC(OC)C(OC4CC(OC)C(O)C(C)O4)C(C)O3)C(C)C=CC=C3COC4C(O)C(C)=CC(C(=O)O1)C34O)O2 (stereo not drawn) [Ivermectin]
Solubility ([2]; in Capryol 90, 25° C.): 150.92 mg/g | Solubility ([2]; in Fractionated Coconut oil, 25° C.): 16.55 mg/g | Solubility ([2]; in Glycerin, 25° C.): <0.1 mg/g | Solubility ([2]; in Kolliphor EL, 25° C.): 95.85 mg/g | Solubility ([2]; in Labrafil M 2125 CS, 25° C.): 35.32 mg/g | Solubility ([2]; in Labrasol ALF, 25° C.): 126.36 mg/g | Solubility ([2]; in LauroglycolTM FCC, 25° C.): 71.96 mg/g | Solubility ([2]; in Maisine CC, 25° C.): 60.17 mg/g | Solubility ([2]; in Masester E8120, 25° C.): 164.06 mg/g | Solubility ([2]; in Medium Chain Triglyceride, 25° C.): 16.49 mg/g | Solubility ([2]; in Oleic acid, 25° C.): 48.58 mg/g | Solubility ([2]; in Olive oil, 25° C.): 4.71 mg/g | Solubility ([2]; in PEG 400, 25° C.): 112.92 mg/g | Solubility ([2]; in Propylene glycol, 25° C.): 25.61 mg/g | Solubility ([2]; in Soybean oil, 25° C.): 6.72 mg/g | Solubility ([2]; in Span 20, 25° C.): 97.66 mg/g | Solubility ([2]; in Span 80, 25° C.): 54.04 mg/g | Solubility ([2]; in Triacetin, 25° C.): 58.75 mg/g | Solubility ([2]; in Tween 80, 25° C.): 88.26 mg/g | Solubility ([2]; in Vitamin E TPGS, table title 25° C., text: conducted at 40° C.): 82.98 mg/g | EC50 ([3]; read-out: EC50, decrease of IL-6): 1.3 µM | EC50 ([3]; read-out: EC50, decrease of IL-23): 0.47 µM | EC50 ([3]; read-out: EC50, decrease of TNF-α): 1.4 µM | AUC(0-t) [4, 14]: 8259.31 ng·h/mL | AUC(0-∞) [4, 14]: 8273.53 ng·h/mL | Cmax [4, 14]: 1722.67 ng/mL | MRT(0-t) [4, 14]: 10.58 h | MRT(0-∞) [4, 14]: 10.81 h | T1/2 [4, 14]: 14.82 h | T1/2 ([4]; single IV injection 2 mg/kg, male SD rats with fasting): 14.82 ± 0.72 h | EC50 ([5]; read-out: EC50, decrease of IFN-γ): 0.987 µM | EC50 ([5]; read-out: EC50, decrease of IL-17): 0.416 µM | IL-1β secretion [6]: significantly down-regulates; also recorded: reduced IL-1β in a dose-dependent manner | ability of T cells to secrete IL-17 in response to TCR stimulation ex vivo [7]: down-regulates | STAT3 phosphorylation [8]: dose-dependent reduction | inhibitor molecule protein (IkB)α phosphorylation [8]: dose-dependent reduction | increase in the percentage of Foxp3+ T cells ([9]; Flow Cytometry): 50% | FoxP3 mRNA levels ([9]; RT-PCR): up-regulation | IL-17A mRNA expression ([9]; RT-PCR): decreased | RORc mRNA expression ([9]; RT-PCR): decreased | occurrence (number) of spasms triggered on P15 vs vehicle controls [10]: significantly suppressed occurrence of spasms; also recorded: significantly fewer spasms | EC50 ([11]; Th17-skewing conditions, additional experiment (FIG. 6B), read-out: EC, inhibition of CXCL13 secretion): 0.378 µM | EC50 ([11]; anti-CD3/CD28 + IL-1β + TGF-β (Th17-skewing), 48 hours, ELISA, read-out: EC50, inhibition of IFN-γ secretion): 0.541 µM | EC50 ([11]; anti-CD3/CD28 + IL-1β + TGF-β (Th17-skewing), 48 hours, ELISA, read-out: EC50, inhibition of IL-17 secretion): 0.45 µM | EC50 ([11]; anti-CD3/CD28 + IL-1β + TGF-β (Th17-skewing), 48 hours, ELISA, read-out: EC50, inhibition of IL-21 secretion): 0.364 µM | IL-6 secretion [12]: significantly and in a dose-dependent manner down-regulates; also recorded: dose dependent decrease | TNF-α secretion [12]: significantly and in a dose-dependent manner down-regulates; also recorded: dose dependent decrease | limb paralysis (clinical score) in EAE model of MS [13]: significantly downregulates limb paralysis

CC[C@@H](C(N)=O)N1CCCC1=O [KEPPRA, Leviteracetam]
Placebo-adjusted >50% Focal Seizure Reduction ([1]; 3000 mg): 29% | Placebo-adjusted Median Reduction in Focal Seizure Frequency ([1]; 3000 mg): 23-31%

COC[C@@H](NC(C)=O)C(=O)NCc1ccccc1 [VIMPAT, Lacosamide]
Placebo-adjusted >50% Focal Seizure Reduction ([1]; 400 mg): 17% | Placebo-adjusted Median Reduction in Focal Seizure Frequency ([1]; 400 mg): 15-29%

NC(=O)O[C@@H](Cn1ncnn1)c1ccccc1Cl [XCOPRI, Cenobamate]
Placebo-adjusted >50% Focal Seizure Reduction ([1]; 400 mg): 39% | Placebo-adjusted Median Reduction in Focal Seizure Frequency ([1]; 4200 mg): 31%

Cc1cc(N2CCc3cc(F)ccc3C2)cc(C)c1NC(=O)CC(C)(C)C [XEN1101]
Placebo-adjusted >50% Focal Seizure Reduction ([1]; 25 mg): 40% | Placebo-adjusted Median Reduction in Focal Seizure Frequency ([1]; 25 mg): 35%

— patent publication US20250195552A1, “METHODS OF USING AVERMECTIN COMPOSITIONS FOR THE TREATMENT OF INFLAMMATORY DISORDERS AND DOSING REGIMENS” (priority 2022, published 2025)
